According to EP4000627A1, “TREATMENT OF ABDOMINAL AORTIC ANEURYSM AFTER ITS CLINICAL MANIFESTATION” (Fundacion Instituto De Investigacion Sanitaria Fundacion …, priority 2020, dated 2022):
Where a SMILES comes first, the peptide text is derived from it. Bridges are numbered along the chain shown (N, C = ends). [ ]: non-standard residue; d: D form. The star is where a group is joined. 1Nal = N[C@@H](Cc1cccc2ccccc12)C(=O)O; Acm = CC(=O)NC*

Experiments:
mouse VSMC = assay: cellular uptake of TAMRA-conjugated S1PS5 peptides (confocal microscopy); type: cell-based; conditions: for degraded in cells: at 24 hours, TAMRA fluorescence intensity; for efficient uptake after: quantification of peptide internalization by TAMRA fluorescence intensity
[1] = 24 hours post-injection
Protocol: (§1) S1 and S1PS5 peptides derived from SOCS1 KIR domain (residues 53-68) conjugated with the cell penetrating sequences at N-terminal were synthesized by solid phase method following the Fmoc strategy, purified by preparative reverse phase-HPLC and lyophilized. Peptides were dissolved in 1% DMSO in saline solution (S1) and H2O (S1PS5), then filter-sterilized and stored at -80°C before use. For biodistribution studies, peptides were labelled with rhodamine or carboxytetramethylrhodamine (TAMRA) at N-terminal. For stability assays, peptides were incubated at 37°C with 25% foetal bovine serum (FBS). At selected times, 80 µL aliquots were taken, precipitated with 15% trichloroacetic acid, and further analysed by reverse phase HPLC with UV detector.

in vitro = assay: in vitro
Protocol: as §1

In the case of `CC(=O)NCSC[C@@H]1NC(=O)[C@H]([C@@H](C)O)NC(=O)[C@@H](NC(=O)CNC(=O)CNC(=O)[C@H](CCC(N)=O)NC(=O)[C@@H]2CCCN2C(=O)[C@@H]2CCCN2C(=O)[C@H](CCCNC(=N)N)NC(=O)[C@H](CCCNC(=N)N)NC(=O)[C@H](CCCNC(=N)N)NC(=O)[C@H](CCC(N)=O)NC(=O)[C@H](CCCNC(=N)N)NC(=O)[C@H](CCCNC(=N)N)NC(=O)[C@H](CCCCN)NC(=O)[C@H](CCCCN)NC(=O)[C@H](CCCNC(=N)N)NC(=O)CN)CC(=O)NCCCC[C@@H](C(=O)N[C@@H](Cc2c[nH]cn2)C(=O)O)NC(=O)[C@H](CCCNC(=N)N)NC(=O)[C@H](Cc2cccc3ccccc23)NC(=O)[C@H]([C@@H](C)O)NC(=O)[C@H](CCC(N)=O)NC(=O)[C@H](CCCNC(=N)N)NC1=O` [internal cyclic S1PS5 Nal1, GRKKRRQRRRPPQGGDTCAcmRQTNal1RKH] (H-GRKKRRQRRRPPQGGDTC(Acm)RQT[1Nal]RKH-OH; lactam 16-24), the degraded in cells (mouse VSMC) is reported as 40%, the efficient uptake after (mouse VSMC) is reported as about 2 h and the “localization in aortic tissue (confocal analysis)” value [1] is reported as “detected”. For the same compound, the metabolised at 20 h (in vitro; 25% foetal bovine serum) was about 20% and the remaining at 42 h (in vitro; 25% foetal bovine serum) was about 40%.

In the case of `CC(=O)NCSC[C@H](NC(=O)[C@@H](NC(=O)[C@H](CC(=O)O)NC(=O)CNC(=O)CNC(=O)[C@H](CCC(N)=O)NC(=O)[C@@H]1CCCN1C(=O)[C@@H]1CCCN1C(=O)[C@H](CCCNC(=N)N)NC(=O)[C@H](CCCNC(=N)N)NC(=O)[C@H](CCCNC(=N)N)NC(=O)[C@H](CCC(N)=O)NC(=O)[C@H](CCCNC(=N)N)NC(=O)[C@H](CCCNC(=N)N)NC(=O)[C@H](CCCCN)NC(=O)[C@H](CCCCN)NC(=O)[C@H](CCCNC(=N)N)NC(=O)CN)[C@@H](C)O)C(=O)N[C@@H](CCCNC(=N)N)C(=O)N[C@@H](CCC(N)=O)C(=O)N[C@H](C(=O)N[C@@H](Cc1ccccc1)C(=O)N[C@@H](CCCNC(=N)N)C(=O)N[C@@H](CO)C(=O)N[C@@H](Cc1c[nH]cn1)C(=O)O)[C@@H](C)O` [linear S1PS5, GRKKRRQRRRPPQGGDTCAcmRQTFRSH] (H-GRKKRRQRRRPPQGGDTC(Acm)RQTFRSH-OH), the degradation rate (in vitro; 25% FBS, 37°C, at 17-20 hours) is reported as 40%.

With `CC(=O)NCSC[C@@H]1NC(=O)[C@H]([C@@H](C)O)NC(=O)[C@@H](NC(=O)CNC(=O)CNC(=O)[C@H](CCC(N)=O)NC(=O)[C@@H]2CCCN2C(=O)[C@@H]2CCCN2C(=O)[C@H](CCCNC(=N)N)NC(=O)[C@H](CCCNC(=N)N)NC(=O)[C@H](CCCNC(=N)N)NC(=O)[C@H](CCC(N)=O)NC(=O)[C@H](CCCNC(=N)N)NC(=O)[C@H](CCCNC(=N)N)NC(=O)[C@H](CCCCN)NC(=O)[C@H](CCCCN)NC(=O)[C@H](CCCNC(=N)N)NC(=O)CN)CC(=O)NCCCC[C@@H](C(=O)N[C@@H](Cc2c[nH]cn2)C(=O)O)NC(=O)[C@H](CCCNC(=N)N)NC(=O)[C@H](Cc2ccccc2)NC(=O)[C@H]([C@@H](C)O)NC(=O)[C@H](CCC(N)=O)NC(=O)[C@H](CCCNC(=N)N)NC1=O` [internal cyclic S1PS5, GRKKRRQRRRPPQGGDTCAcmRQTFRKH] (H-GRKKRRQRRRPPQGGDTC(Acm)RQTFRKH-OH; lactam 16-24) the degraded in cells (mouse VSMC) was “almost completely degraded”, the efficient uptake after (mouse VSMC) was about 2 h and the metabolised at 20 h (in vitro; 25% foetal bovine serum) was about 40%.
